CC(C)C(=O)Nc1ccc([N+](=O)[O-])c(C(F)(F)F)c1
solubility (mole fraction)
Settings	278.15 K	283.15 K	288.15 K	293.15 K	298.15 K	303.15 K	308.15 K	313.15 K	318.15 K	323.15 K
in 1,4-dioxane	–	0.108	0.127	0.151	0.177	0.203	0.231	0.262	0.299	0.348
in THF	0.259	0.276	0.297	0.321	0.348	0.376	0.405	0.436	0.469	0.502
in acetone	0.186	0.201	0.228	0.258	0.291	0.327	0.366	0.407	0.45	0.49
in acetonitrile	0.0566	0.0711	0.0902	0.119	0.157	0.197	0.246	0.296	0.355	0.427
in ethanol	0.0503	0.0556	0.063	0.0709	0.0797	0.0908	0.102	0.117	0.133	0.154
in ethyl acetate	0.161	0.178	0.191	0.206	0.227	0.246	0.269	0.29	0.321	0.351
in isobutanol	0.0307	0.0381	0.0487	0.0632	0.0776	0.0965	0.118	0.141	0.171	0.207
in isopropanol	0.0539	0.0609	0.0692	0.0799	0.0918	0.105	0.121	0.139	0.161	0.182
in methanol	0.0401	0.047	0.0555	0.0641	0.0757	0.0878	0.103	0.12	0.142	0.166
in methyl acetate	0.141	0.157	0.179	0.208	0.24	0.275	0.312	0.35	0.396	0.447
in n-butanol	0.049	0.0549	0.0622	0.0709	0.0797	0.0904	0.103	0.117	0.135	0.156
in n-propanol	0.049	0.0547	0.0624	0.0698	0.0784	0.0889	0.101	0.115	0.132	0.15

From BigSolDB 2.1
